The cell lines below were run with CCn1c(-c2nonc2N)nc2c(C#CC(C)(C)O)ncc(OC[C@H]3CCCNC3)c21 + C[C@@H](Oc1cc(-c2cnn(C3CCNCC3)c2)cnc1N)c1c(Cl)ccc(F)c1Cl [Crizotinib] (partner 1 µM) (assay: relative viability (nuclei count vs DMSO), 5 days (fraction); higher = more cells survive). Conditions: first compound 0.01 µM.
Procedure, shortened: (§1)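 Relative viability was taken as the ratio of nuclei in treated wells to nuclei in vehicle wells. Lung cancer cell lines in 1536-well plates received compounds by pin tool one day after seeding, either one drug alone or a fixed anchor-drug dose plus five library-drug doses (not always all listed) in √10 steps. Nuclei were counted on 4× images after 5 days of treatment, and values are medians of duplicate plates.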

Cell Line | relative viability
NCI-H727 | 0.841
NCI-H1650 | 0.964
EBC-1 | 0.161
NCI-H1703 | 0.465
NCI-H1993 | 0.856
SW 1573 | 0.699
NCI-H838 | 0.805
LCLC-103H | 0.964
NCI-H520 | 0.732
NCI-H2126 | 1.01
EMC-BAC-2 | 0.773
NCI-H2085 | 0.882
Calu-6 | 0.758
HCC-366 | 0.505
NCI-H1666 | 1.04
NCI-H596 | 0.834
LK-2 | 0.247
NCI-H2087 | 0.729
SK-MES-1 | 0.989
H3255 | 0.805

Cell Line | relative viability
COR-L23 | 0.612
COR-L 105 | 0.692
IA-LM | 0.824
LOU-NH91 | 0.758
ChaGo-K-1 | 1.05
NCI-H2170 | 1.16
NCI-H2405 | 0.888
HOP-62 | 0.769
HCC-44 | 0.778
A549 | 0.665
LU99A | 0.567
BEN | 0.962
HARA | 0.976
NCI-H1299 | 0.935
CAL-12T | 0.8
NCI-H2228 | 0.552
NCI-H1563 | 0.853
NCI-H1944 | 1.07
ABC-1 | 1.37
NCI-H358 | 0.485

Same assay, conditions: first compound 0.03162 µM

Cell Line | relative viability
NCI-H727 | 0.94
NCI-H1650 | 1.06
EBC-1 | 0.194
NCI-H1703 | 0.656
NCI-H1993 | 0.877
SW 1573 | 0.767
NCI-H838 | 0.969
LCLC-103H | 1.07
NCI-H520 | 1.02
NCI-H2126 | 1
EMC-BAC-2 | 0.846
NCI-H2085 | 0.882
Calu-6 | 0.814
HCC-366 | 0.644
NCI-H1666 | 1.1
NCI-H596 | 1.08
LK-2 | 0.181
NCI-H2087 | 0.748
SK-MES-1 | 0.982
H3255 | 0.983

Cell Line | relative viability
COR-L23 | 0.724
COR-L 105 | 1.05
IA-LM | 0.601
LOU-NH91 | 0.747
ChaGo-K-1 | 1.14
NCI-H2170 | 1.26
NCI-H2405 | 0.911
HOP-62 | 0.978
HCC-44 | 0.803
A549 | 0.706
LU99A | 0.556
BEN | 1.11
HARA | 1.01
NCI-H1299 | 0.927
CAL-12T | 0.653
NCI-H2228 | 0.56
NCI-H1563 | 0.923
NCI-H1944 | 1.07
ABC-1 | 1.27
NCI-H358 | 0.604

Same assay, conditions: first compound 0.1 µM

Cell Line | relative viability
NCI-H727 | 0.785
NCI-H1650 | 0.924
EBC-1 | 0.223
NCI-H1703 | 0.59
NCI-H1993 | 0.92
SW 1573 | 0.734
NCI-H838 | 0.826
LCLC-103H | 1.05
NCI-H520 | 0.616
NCI-H2126 | 0.993
EMC-BAC-2 | 0.696
NCI-H2085 | 0.802
Calu-6 | 0.868
HCC-366 | 0.59
NCI-H1666 | 0.966
NCI-H596 | 0.996
LK-2 | 0.215
NCI-H2087 | 0.942
SK-MES-1 | 0.963
H3255 | 0.804

Cell Line | relative viability
COR-L23 | 0.56
COR-L 105 | 0.731
IA-LM | 0.862
LOU-NH91 | 0.742
ChaGo-K-1 | 1.13
NCI-H2170 | 1.1
NCI-H2405 | 0.704
HOP-62 | 0.929
HCC-44 | 0.773
A549 | 0.718
LU99A | 0.571
BEN | 0.758
HARA | 1.05
NCI-H1299 | 0.948
CAL-12T | 0.546
NCI-H2228 | 0.476
NCI-H1563 | 0.799
NCI-H1944 | 1.02
ABC-1 | 0.867
NCI-H358 | 0.51

Same assay, conditions: first compound 0.3162 µM

Cell Line | relative viability
NCI-H727 | 0.667
NCI-H1650 | 0.971
EBC-1 | 0.159
NCI-H1703 | 0.482
NCI-H1993 | 0.775
SW 1573 | 0.762
NCI-H838 | 0.835
LCLC-103H | 1.11
NCI-H520 | 0.644
NCI-H2126 | 0.974
EMC-BAC-2 | 0.738
NCI-H2085 | 0.817
Calu-6 | 0.756
HCC-366 | 0.501
NCI-H1666 | 0.943
NCI-H596 | 0.915
LK-2 | 0.24
NCI-H2087 | 0.847
SK-MES-1 | 0.909
H3255 | 0.598

Cell Line | relative viability
COR-L23 | 0.662
COR-L 105 | 0.731
IA-LM | 0.703
LOU-NH91 | 0.543
ChaGo-K-1 | 1.05
NCI-H2170 | 1.15
NCI-H2405 | 0.798
HOP-62 | 0.874
HCC-44 | 0.786
A549 | 0.666
LU99A | 0.494
BEN | 0.714
HARA | 1.03
NCI-H1299 | 0.919
CAL-12T | 0.738
NCI-H2228 | 0.378
NCI-H1563 | 0.772
NCI-H1944 | 1.07
ABC-1 | 1.11
NCI-H358 | 0.669

Same assay, conditions: first compound 1 µM

Cell Line | relative viability
NCI-H727 | 0.763
NCI-H1650 | 1.07
EBC-1 | 0.197
NCI-H1703 | 0.376
NCI-H1993 | 0.887
SW 1573 | 0.704
NCI-H838 | 0.841
LCLC-103H | 1.02
NCI-H520 | 0.452
NCI-H2126 | 1.06
EMC-BAC-2 | 0.759
NCI-H2085 | 0.749
Calu-6 | 0.786
HCC-366 | 0.534
NCI-H1666 | 0.968
NCI-H596 | 0.948
LK-2 | 0.232
NCI-H2087 | 0.732
SK-MES-1 | 0.982
H3255 | 0.782

Cell Line | relative viability
COR-L23 | 0.604
COR-L 105 | 0.875
IA-LM | 0.323
LOU-NH91 | 0.754
ChaGo-K-1 | 1.19
NCI-H2170 | 1.24
NCI-H2405 | 0.848
HOP-62 | 0.888
HCC-44 | 0.758
A549 | 0.63
LU99A | 0.491
BEN | 0.885
HARA | 1.02
NCI-H1299 | 0.997
CAL-12T | 0.84
NCI-H2228 | 0.33
NCI-H1563 | 0.81
NCI-H1944 | 1.09
ABC-1 | 0.608
NCI-H358 | 0.611

The cell lines below were run with CCOC1=CC=CC=C1N=NC2=C(NN(C2=O)C3=NC(=CS3)C4=CC=CC=C4)C [BAM7] + CC(=O)Nc1cccc(-n2c(=O)n(C3CC3)c(=O)c3c(Nc4ccc(I)cc4F)n(C)c(=O)c(C)c32)c1 [Trametinib] (partner 0.02 µM) in the same assay as above. Conditions: first compound 0.5 µM.
Procedure, shortened: as §1

Cell Line | relative viability
NCI-H522 | 0.72
NCI-H727 | 0.413
NCI-H1650 | 0.607
NCI-H1993 | 0.456
SW 1573 | 0.633
NCI-H838 | 0.504
LCLC-103H | 0.664
NCI-H520 | 0.595
NCI-H2126 | 0.516
EMC-BAC-2 | 0.941
NCI-H2085 | 0.587
HCC-366 | 0.328
NCI-H1666 | 0.895
NCI-H596 | 0.869
LK-2 | 0.737
NCI-H2087 | 0.18
NCI-H2342 | 0.933
SK-MES-1 | 0.566

Cell Line | relative viability
H3255 | 0.539
COR-L23 | 0.519
COR-L 105 | 0.404
LOU-NH91 | 0.794
ChaGo-K-1 | 0.894
NCI-H2170 | 0.917
NCI-H2405 | 0.596
HOP-62 | 0.37
HCC-44 | 1.07
LU99A | 0.54
BEN | 1.04
HARA | 0.827
NCI-H1648 | 0.558
NCI-H1395 | 0.972
CAL-12T | 0.381
NCI-H2228 | 0.601
NCI-H1793 | 0.407
NCI-H1944 | 0.444

Same assay, conditions: first compound 5 µM

Cell Line | relative viability
NCI-H522 | 0.741
NCI-H727 | 0.414
NCI-H1650 | 0.467
NCI-H1993 | 0.524
SW 1573 | 0.592
NCI-H838 | 0.524
LCLC-103H | 0.706
NCI-H520 | 0.782
NCI-H2126 | 0.499
EMC-BAC-2 | 0.944
NCI-H2085 | 0.521
HCC-366 | 0.373
NCI-H1666 | 0.879
NCI-H596 | 0.838
LK-2 | 0.945
NCI-H2087 | 0.181
NCI-H2342 | 0.818
SK-MES-1 | 0.551
H3255 | 0.607

Cell Line | relative viability
COR-L23 | 0.58
COR-L 105 | 0.525
LOU-NH91 | 0.788
ChaGo-K-1 | 0.895
NCI-H2170 | 0.799
NCI-H2405 | 0.706
HOP-62 | 0.416
HCC-44 | 1.11
SW 900 | 0.72
LU99A | 0.548
BEN | 1.1
HARA | 0.886
NCI-H1648 | 0.476
NCI-H1395 | 1.28
CAL-12T | 0.333
NCI-H2228 | 0.523
NCI-H1793 | 0.473
NCI-H1944 | 0.433
NCI-H358 | 0.152

Same assay, conditions: first compound 15.81 µM

Cell Line | relative viability
NCI-H522 | 0.665
NCI-H727 | 0.393
NCI-H1650 | 0.578
NCI-H1993 | 0.479
SW 1573 | 0.541
NCI-H838 | 0.498
LCLC-103H | 0.69
NCI-H520 | 0.804
NCI-H2126 | 0.519
EMC-BAC-2 | 0.941
NCI-H2085 | 0.471
HCC-366 | 0.294
NCI-H1666 | 0.887
NCI-H596 | 0.754
LK-2 | 0.811
NCI-H2087 | 0.204
NCI-H2342 | 0.745
SK-MES-1 | 0.523
H3255 | 0.507

Cell Line | relative viability
COR-L23 | 0.614
COR-L 105 | 0.466
LOU-NH91 | 0.804
ChaGo-K-1 | 0.853
NCI-H2170 | 0.814
NCI-H2405 | 0.477
HOP-62 | 0.376
HCC-44 | 0.983
LU99A | 0.552
BEN | 0.851
HARA | 0.607
NCI-H1648 | 0.421
NCI-H1395 | 0.946
CAL-12T | 0.303
NCI-H2228 | 0.41
NCI-H1793 | 0.385
NCI-H1944 | 0.434
NCI-H358 | 0.137

Same assay, conditions: first compound 50 µM

Cell Line | relative viability
NCI-H522 | 0.718
NCI-H727 | 0.386
NCI-H1650 | 0.727
NCI-H1993 | 0.506
SW 1573 | 0.528
NCI-H838 | 0.494

Reference: the supplement of paper PMC10307832
